Assays:
[1] = tested on: hypoxic-ischemic injury, 21 day old Wistar rats; settings: rat, in vivo, ip
Protocol: The objective of this study was to compare the effects of treatment with GPE to that of a vehicle given 2 hours after an hypoxic-ischemic injury. The dose range of 2 to 200 μg was chosen to span a range of systemic doses that are greater than that required centrally (see experiment 3).
Unilateral hypoxic-ischemic injury was induced in 21 day old, 45±5 g Wistar rats. The rats underwent unilateral carotid ligation under light halothane anaesthesia.
Following one hour recovery they were placed in an incubator at 34 deg C. 85±5% humidity for one hour before the injury. They were subjected to 1 min inhalation hypoxia (FiO2 8.0%) and then returned to room temperature (22 deg C.) and normoxia. […]
Surviving and dead neurons were discriminated using the thionin/acid fuchsin staining technique (Guan et al J Cereb Blood Flow Metab. 13:609-616 (1993). The results, in which the height of a point is given by the ratio as a percentage of live neurones in the CA1-2 region on the right side to the number on the left side are shown in FIG. 5. Column A is vehicle, column B is 2 μg of GPE, column C is 20 μg of GPE, and column D is 200 μg of GPE. In this figure, the P value (0.031) was calculated by a method using one way ANOVA comparing many groups after Arcsin transformation.

[2] = tested on: hypoxic-ischemic injury to one cerebral hemisphere, adult Wistar rats; assay: Experiment 1: IGF-1 and/or MK801 2 hours after unilateral hypoxic-ischemic injury, histology at 120 hours; assay type: in vivo, rat; settings: treatment 2 hours after hypoxia, IGF-1 50 μg intraventricular, MK801 1 mg, controls 65%
Protocol: One carotid artery was ligated and the animal was subjected two hours later to a defined period of inhalational hypoxia. The degree, length of hypoxia, ambient temperature and humidity were defined to standardise the degree of damage. They were sacrificed five days later for histological analysis using stains (acid-fuchsin) specific for necrotic neurons.
Adult Wistar rats (68 280-320 g) were prepared under 3% halothane/O2 anaesthesia. The right side carotid artery was ligated. A guide cannula was placed on the dura 8.2 mm anterior from bregma and 1.4 mm from midline on the right. The rats were allowed to recover from anaesthesia for 1 hour and were then placed in an incubator with humidity 85±5% and temperature 34±0.5C. for 1 hour before hypoxia. Oxygen concentration was reduced and maintained at 6±0.2 02% hypoxia for 10 minutes. […] Fifty micrograms of IGF-1 or vehicle alone (0.1% BSA in 0.15M PBS (pH 7.3)) were given via intra-ventricular (IVC) infusion. […] The intraventricular injections of 50 μg IGF-1 or vehicle alone were made into the right lateral ventricle at 1 μl/minute under 1.5%-2% halothane anaesthetic. […] The presence of cortical infarction, defined as a region of tissue death or parenchymal pan-necrosis due to death of glia as well as neurons, was determined via light microscopy by an assessor who was blinded to the experimental groupings.

[3] = tested on: ischemic brain injury, late gestation fetal sheep; assay: Experiment 2: IGF-1 into lateral ventricle 2 hours after 30 minutes of brain ischemia in fetal sheep; assay type: in vivo
From the text: The objective of this study was to compare the effects of treatment either with IGF-1 (see FIG. 2) and previously published work with the NMDA antagonist MK810 after an ischemic brain injury on postischernic seizures and neuronal losses in fetal sheep. (Tan et al Ann Neurol 32:677-682 (1992)).
The methods were those of an earlier study (Tan et al Ann Neurol 32:677-682 (1992)). Briefly, late gestation fetal sheep were chronically instrumented to record EEG, nuchal activity and blood pressure, and were then returned to the uterus. Cortical EEG activity, nuchal activity and blood pressure were recorded throughout he experiment and the fetal brain subjected to 30 minutes of ischemia. Two hours later they were treated by an infusion of either 1 μg IGF-1 (n=6) or vehicle (artificial CSF) (n=6) into the lateral ventricle. Five days later the brains were fixed and assessed for neuronal loss as described previously (Tan et al Ann Neurol 32:677-682 (1992)).
In all cases the vehicle is the left-hand column and the effects of 1 μg of IGF-1 is on the right.

[4] = tested on: ischemic brain injury, late gestation fetal sheep; settings: ischemic model in fetal sheep; Tan et al Ann Neurol 32:677-682 (1992); cited from earlier work

| Compound | passage of the blood-brain barrier [1] | incidence of cortical infarction [2] | suppression of postischemic seizure activity ([3]; 1 μg IGF-1 2 h after ischemia) | neuronal rescue (neuronal loss scores) ([3]; 1 μg IGF-1 into lateral ventricle 2 h after 30 minutes ischemia, assessed five days later) | suppression of cortical electroencephalographic activity [4] |
| --- | --- | --- | --- | --- | --- |
| NCC(=O)N1CCC[C@H]1C(=O)N[C@@H](CCC(=O)O)C(=O)O [GPE, gly-pro-glu] | can cross the blood-brain barrier |  |  |  |  |
| C[C@]12N[C@H](Cc3ccccc31)c1ccccc12 [MK801, reference compound] |  | 50% |  |  |  |
| insulin-like growth factor 1 [IGF-1] |  | 33% | did not suppress the postischemic seizure activity | rescued neurons | did not suppress cortical electroencephalographic activity |

Reference: patent US6780848B2, “Use of GPE to protect glial cells or non-dopaminergic cells from death from neural injury or disease” (NeuronZ, Ltd., priority 1993, dated 2004)
